Assay results published in US8129424B2, “Indole derivatives as histamine 3 receptor inhibitors for the treatment of cognitive and sleep disorders, obesity and other CNS disorders” (Athersys, Inc., priority 2005, dated 2012).

Columns and labels:
[1] = target: T1, human histamine H3 receptor (Homo sapiens, UniProt Q9Y5N1); assay: Calcium mobilization assay (FLIPR), inhibition of (R)-α-methylhistamine-stimulated Ca2+ flux in RAGE-H3 cells; type: cell-based; conditions: determined using FLIPR
T1 construct: expressed in transfected cells; host or cells: HT1080-Gqαi5 cells (human), pFG8-HH3 RAGE vector integrated; methotrexate-amplified clone RAGE-H3
T1 sequence (Q9Y5N1 whole entry): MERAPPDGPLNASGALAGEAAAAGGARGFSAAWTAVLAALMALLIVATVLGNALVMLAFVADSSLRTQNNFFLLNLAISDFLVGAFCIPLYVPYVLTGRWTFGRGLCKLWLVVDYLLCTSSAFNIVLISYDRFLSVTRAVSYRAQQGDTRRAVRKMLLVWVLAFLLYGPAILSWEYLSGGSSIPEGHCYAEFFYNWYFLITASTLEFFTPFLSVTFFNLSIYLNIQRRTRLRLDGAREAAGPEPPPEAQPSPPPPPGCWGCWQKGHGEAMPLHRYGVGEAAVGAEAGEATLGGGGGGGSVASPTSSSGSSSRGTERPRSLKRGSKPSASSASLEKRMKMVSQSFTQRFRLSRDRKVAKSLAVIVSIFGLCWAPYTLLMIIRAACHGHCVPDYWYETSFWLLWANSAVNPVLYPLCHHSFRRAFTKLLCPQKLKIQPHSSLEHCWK
Description: The human histamine H3 receptor was stably expressed in HT1080 cells containing the chimeric G-protein, Gq[…]i5 (Coward et al., Anal Biochem 1999; 270:242-8). HT1080-Gqαi5 cells were grown in alpha-modified MEM containing 10% fetal bovine serum and 7 μg/ml blasticidin at 37° C. in 5% CO2/95% atmosphere. Cells (4.8×10^9) were irradiated with 50 rads from a ^137Cs source and the pFG8-HH3 RAGE (Random Activation of Gene Expression; see Harrington et al., Nature Biotechnology. 2001; 19:440-45) vector was subsequently integrated into the cells via electroporation (250V, 600 μF, 50Ω). The RAGE vector pFG8-HH3 contained cDNA sequence coding for the first exon (83 amino acids) of human H3 receptor. After electroporation, cells were plated in T75 flasks and grown in alpha-modified MEM. The culture medium was replaced 48 hours after electroporation with alpha-modified MEM, 10% fetal bovine serum, 500 μg/ml hygromycin B and 3 μg/ml puromycin. Medium was replaced every four days during cell expansion. To identify RAGE activated cells expressing the H3 receptor, pools of approximately 10,000 colonies (5×10^7-1.5×10^8 cells total) were screened by PCR for the desired gene product (using primers specific to the RAGE vector and exon 2 of the H3 receptor). […] Positive 100 cells/well pools were identified by PCR, confirmed by sequencing, and subsequently subcloned to 0.8 cells/well. Once clones expressing the H3 receptor were identified by PCR analysis, assays (FLIPR or radioligand binding) were performed to confirm that the activated gene produced functional protein. The protein expression in the initial clones obtained from the RAGE library was increased by growth in the presence of methotrexate. Since the integrated RAGE vector contains the DHFR gene, such treatment selects for cells that have amplified the genetic locus containing the RAGE insert. Subclones obtained after methotrexate amplification were tested for functional activity in FLIPR assays to identify the clone that was most suitable for HTS. The final HT1080-Gqαi5 RAGE clone (RAGE-H3) expressing the human histamine H3 receptor was grown in alpha-modified MEM containing 10% fetal bovine serum, 3 μg/ml puromycin, 500 μg/ml hygromycin B, 3.2 μM methotrexate at 37° C. in 5% CO2/95% atmosphere.
RAGE-H3 or HT1080-mH3 cells were seeded in black 384-well plates and incubated overnight at 37° C. in a 5% CO2/95% atmosphere. After removing medium, cells were treated with CsCl Ringer's buffer (136 mM CsCl, 5.4 mM KCl, 5.5 mM D-Glucose, 20 mM Hepes, pH 7.4, 2.1 mM MgCl2, 1.2 mM CaCl2) containing the Calcium 3 dye (Molecular Device, CA) and probenecid (3.75 mM) for 60 minutes, according to manufacture's instruction. Compounds were diluted in CsCl Ringer's buffer containing 0.2% bovine serum albumin and 1.0% DMSO. The dose response of (R)-α-methylhistamine-stimulated Ca^2+ flux was measured on a Fluorometric Imaging Plate Reader (FLIPR, Molecular Devices, CA) and the concentration of (R)-α-methylhistamine to stimulate 75% of maximum response was used to test the inhibitory effect of compounds.
All data were analyzed by nonlinear least squares curve fitting using Prism 4.0 software. The KD and Bmax for [^125I]iodoproxyfan were derived from the equation RL=RtL/(KD+L), where RL is concentration of receptor-bound ligand at equilibrium, L is the free ligand concentration, and Rt is the total receptor concentration (i.e., Bmax). For competition binding experiments, IC50 values (the concentration of compound producing 50% inhibition of specific binding) and Hill Coefficients (nH) were derived from fitting the data to a 4-parameter logistic equation. Apparent Ki values were calculated using the Cheng-Prussof equation of Ki=IC50/(1+(L/KD)), where L is the ligand concentration. […]

[2] = tested on: H3 receptor; conditions: cat, cited from earlier work
[3] = tested on: H3 receptor; conditions: in vivo studies; cited from earlier work
[4] = cited from earlier work
[5] = target: T2, H3 receptor (Rattus norvegicus, UniProt Q9QYN8); conditions: rats; cited from earlier work
T2 construct: host or cells: living rats
T2 sequence (Q9QYN8 whole entry): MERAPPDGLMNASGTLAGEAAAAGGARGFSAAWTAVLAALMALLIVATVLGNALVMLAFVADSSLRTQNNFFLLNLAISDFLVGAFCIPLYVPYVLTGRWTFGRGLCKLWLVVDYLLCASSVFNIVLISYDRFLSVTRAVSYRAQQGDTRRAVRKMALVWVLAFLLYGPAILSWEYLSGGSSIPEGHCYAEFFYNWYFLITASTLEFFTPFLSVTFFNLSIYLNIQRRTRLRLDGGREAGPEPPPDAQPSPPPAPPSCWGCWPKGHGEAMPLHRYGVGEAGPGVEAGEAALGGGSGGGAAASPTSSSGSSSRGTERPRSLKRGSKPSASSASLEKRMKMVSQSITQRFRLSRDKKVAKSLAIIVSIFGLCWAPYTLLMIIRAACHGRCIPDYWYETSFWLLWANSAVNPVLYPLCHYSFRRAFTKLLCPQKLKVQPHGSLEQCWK

Compound | IC50 [1] | other results
Brc1ccc2c(ccn2-c2ccc(OCCCN3CCCC3)cc2)c1 [Example 7, 5-Bromo-1-[4-(3-pyrrolidin-1-ylpropoxy)phenyl]-1H-indole] | < 1 µM | –
Clc1cccc2c1ccn2-c1ccc(OCCCN2CCCC2)cc1 [Example 8, 4-Chloro-1-[4-(3-pyrrolidin-1-ylpropoxy)phenyl]-1H-indole] | < 1 µM | –
COc1ccc2c(ccn2-c2ccc(OCCCN3CCCC3)cc2)c1 [Example 9, 5-Methoxy-1-[4-(3-pyrrolidin-1-ylpropoxy)phenyl]-1H-indole] | < 1 µM | –
Clc1ccc2c(ccn2-c2ccc(OCCCN3CCCC3)cc2)c1 [Example 10, 5-Chloro-1-[4-(3-pyrrolidin-1-ylpropoxy)phenyl]-1H-indole] | < 1 µM | –
COc1cc(-n2c(C)cc3ccccc32)ccc1OCCCN1CCCC1 [Example 14, 1-[3-Methoxy-4-(3-pyrrolidin-1-ylpropoxy)phenyl]-2-methyl-1H-indole] | < 1 µM | –
Cc1cc2ccccc2n1-c1ccc(OCCCN2CCCC2)c(Cl)c1 [Example 15, 1-[3-Chloro-4-(3-pyrrolidin-1-ylpropoxy)phenyl]-2-methyl-1H-indole] | < 1 µM | –
C[C@@H](N)Cc1cnc[nH]1 [RAMHA] | – | deep slow wave sleep ([2]; oral administration): significant increase
S=C(NC1CCCCC1)N1CCC(c2cnc[nH]2)CC1 [thioperamide] | – | synthesis and release of histamine [3]: increase; wakefulness [2]: enhanced wakefulness in a dose-dependent fashion; durations of every convulsive phase ([4]; after electrically-induced convulsions): significantly and dose-dependently decrease; electroconvulsive threshold ([4]; in vivo): increase; slow-wave and REM sleep [5]: decrease; wakefulness [5]: increase wakefulness

More lines, main results first:

IC50 [1] | Compound | other results
< 0.1 µM | c1ccc2c(c1)ccn2-c1ccc(OCCCN2CCCC2)cc1 [Example 4, 1-[4-(3-Pyrrolidin-1-ylpropoxy)phenyl]-1H-indole] | –
< 0.1 µM | COc1ccc2c(c1)cc(C)n2-c1ccc(OCCCN2CCCC2)cc1 [Example 5, 5-Methoxy-2-methyl-1-[4-(3-pyrrolidin-1-ylpropoxy)phenyl]-1H-indole] | –
< 1 µM | Cc1ccc2c(ccn2-c2ccc(OCCCN3CCCC3)cc2)c1 [Example 6, 5-Methyl-1-[4-(3-pyrrolidin-1-ylpropoxy)phenyl]-1H-indole] | –
< 0.1 µM | COc1ccc2c(c1)cc(C)n2-c1ccc(C#CCCN2CCCC2)cc1 [Example 17, 5-Methoxy-2-methyl-1-[4-(4-pyrrolidin-1-ylbut-1-ynyl)phenyl]-1H-indole] | –
< 0.1 µM | c1ccc2c(c1)cc(C1CC1)n2-c1ccc(OCCCN2CCCC2)cc1 [Example 37, 2-Cyclopropyl-1-[4-(3-pyrrolidin-1-ylpropoxy)phenyl]-1H-indole] | –
